Reference: the NIST ThermoML archive (doi:10.1016/j.fluid.2012.05.002)
Numbers after ± are expanded uncertainties.

Experiment: osmotic coefficient (dimensionless); mn = molality of the nth substance listed, in mol/kg
Details: 298.1 K, 20 kPa, Liquid, isopiestic method

O=C(O)C(O)C(O)C(=O)O (centres undefined) [2,3-dihydroxybutanedioic acid] + O
osmotic coefficient (m1 = 0.3554): 0.461 ± 0.023
osmotic coefficient (m1 = 0.51): 0.382 ± 0.024
osmotic coefficient (m1 = 0.698): 0.313 ± 0.027
osmotic coefficient (m1 = 1.074): 0.286 ± 0.028
osmotic coefficient (m1 = 1.268): 0.285 ± 0.028
osmotic coefficient (m1 = 1.739): 0.283 ± 0.028
osmotic coefficient (m1 = 2.361): 0.292 ± 0.03
osmotic coefficient (m1 = 2.404): 0.292 ± 0.027
osmotic coefficient (m1 = 3.449): 0.322 ± 0.028
osmotic coefficient (m1 = 4.311): 0.351 ± 0.025
osmotic coefficient (m1 = 5.203): 0.379 ± 0.024
osmotic coefficient (m1 = 6.517): 0.416 ± 0.023
osmotic coefficient (m1 = 7.737): 0.437 ± 0.022

CC(=O)O [acetic acid] + O
osmotic coefficient (m1 = 0.3254): 1.034 ± 0.0034
osmotic coefficient (m1 = 0.4489): 1.014 ± 0.003
osmotic coefficient (m1 = 0.6191): 0.991 ± 0.013
osmotic coefficient (m1 = 0.7688): 0.9736 ± 0.0014
osmotic coefficient (m1 = 1.029): 0.9465 ± 0.0043
osmotic coefficient (m1 = 1.262): 0.925 ± 0.0036
osmotic coefficient (m1 = 1.638): 0.8942 ± 0.0068
osmotic coefficient (m1 = 2.236): 0.852 ± 0.015
osmotic coefficient (m1 = 2.588): 0.8295 ± 0.0074
osmotic coefficient (m1 = 3.693): 0.768 ± 0.009
osmotic coefficient (m1 = 4.687): 0.72 ± 0.011
osmotic coefficient (m1 = 6.292): 0.652 ± 0.014
osmotic coefficient (m1 = 9.635): 0.535 ± 0.018
osmotic coefficient (m1 = 14.92): 0.375 ± 0.03

CCCC(=O)O [butanoic acid] + O
osmotic coefficient (m1 = 0.2966): 1.051 ± 0.0094
osmotic coefficient (m1 = 0.3972): 1.03 ± 0.012
osmotic coefficient (m1 = 0.7027): 0.9809 ± 0.0023
osmotic coefficient (m1 = 0.9898): 0.9364 ± 0.0052
osmotic coefficient (m1 = 1.539): 0.8612 ± 0.0079
osmotic coefficient (m1 = 2.501): 0.755 ± 0.011
osmotic coefficient (m1 = 2.652): 0.74 ± 0.011
osmotic coefficient (m1 = 4.544): 0.598 ± 0.016
osmotic coefficient (m1 = 5.353): 0.553 ± 0.018
osmotic coefficient (m1 = 6.364): 0.506 ± 0.019
osmotic coefficient (m1 = 7.777): 0.454 ± 0.023
osmotic coefficient (m1 = 9.598): 0.402 ± 0.023
osmotic coefficient (m1 = 12): 0.351 ± 0.026
osmotic coefficient (m1 = 15.29): 0.302 ± 0.027
osmotic coefficient (m1 = 17.6): 0.278 ± 0.028

O=C(O)CC(O)(CC(=O)O)C(=O)O [citric acid] + O
osmotic coefficient (m1 = 0.2947): 1.058 ± 0.006
osmotic coefficient (m1 = 0.3878): 1.058 ± 0.0043
osmotic coefficient (m1 = 0.6515): 1.058 ± 0.0041
osmotic coefficient (m1 = 0.8686): 1.067 ± 0.0061
osmotic coefficient (m1 = 1.039): 1.073 ± 0.0037
osmotic coefficient (m1 = 1.225): 1.082 ± 0.004
osmotic coefficient (m1 = 1.753): 1.12 ± 0.01
osmotic coefficient (m1 = 2.327): 1.17 ± 0.014
osmotic coefficient (m1 = 2.699): 1.194 ± 0.0075
osmotic coefficient (m1 = 3.133): 1.23 ± 0.0089
osmotic coefficient (m1 = 3.816): 1.288 ± 0.011
osmotic coefficient (m1 = 4.436): 1.34 ± 0.014
osmotic coefficient (m1 = 5.134): 1.4 ± 0.016
osmotic coefficient (m1 = 5.522): 1.44 ± 0.017
osmotic coefficient (m1 = 5.987): 1.47 ± 0.02
osmotic coefficient (m1 = 6.701): 1.52 ± 0.02
osmotic coefficient (m1 = 7.6): 1.58 ± 0.022
osmotic coefficient (m1 = 8.205): 1.62 ± 0.026

O=CO [formic acid] + O
osmotic coefficient (m1 = 0.3334): 1.047 ± 0.0031
osmotic coefficient (m1 = 0.6596): 1.078 ± 0.0039
osmotic coefficient (m1 = 0.7817): 1.089 ± 0.0046
osmotic coefficient (m1 = 0.9947): 1.109 ± 0.0045
osmotic coefficient (m1 = 1.248): 1.133 ± 0.011
osmotic coefficient (m1 = 1.439): 1.151 ± 0.01
osmotic coefficient (m1 = 1.688): 1.173 ± 0.0071
osmotic coefficient (m1 = 2.27): 1.226 ± 0.0098
osmotic coefficient (m1 = 2.667): 1.26 ± 0.01
osmotic coefficient (m1 = 2.913): 1.28 ± 0.017
osmotic coefficient (m1 = 3.395): 1.322 ± 0.013
osmotic coefficient (m1 = 3.782): 1.35 ± 0.014
osmotic coefficient (m1 = 4.446): 1.41 ± 0.021
osmotic coefficient (m1 = 4.836): 1.44 ± 0.018
osmotic coefficient (m1 = 5.352): 1.48 ± 0.018
osmotic coefficient (m1 = 5.619): 1.49 ± 0.019

O=C(O)CC(O)C(=O)O (centres undefined) [hydroxybutanedioic acid] + O
osmotic coefficient (m1 = 0.1223): 1.343 ± 0.013
osmotic coefficient (m1 = 0.2625): 0.828 ± 0.0078
osmotic coefficient (m1 = 0.3917): 0.426 ± 0.024
osmotic coefficient (m1 = 0.5398): 0.351 ± 0.026
osmotic coefficient (m1 = 0.8231): 0.441 ± 0.022
osmotic coefficient (m1 = 0.9977): 0.506 ± 0.019
osmotic coefficient (m1 = 1.245): 0.528 ± 0.018
osmotic coefficient (m1 = 1.848): 0.531 ± 0.02
osmotic coefficient (m1 = 2.634): 0.54 ± 0.018
osmotic coefficient (m1 = 3.207): 0.554 ± 0.017
osmotic coefficient (m1 = 3.996): 0.566 ± 0.017
osmotic coefficient (m1 = 5.166): 0.584 ± 0.017
osmotic coefficient (m1 = 6.325): 0.613 ± 0.017
osmotic coefficient (m1 = 7.352): 0.626 ± 0.015

O=C(O)CC(=O)O [propanedioic acid] + O
osmotic coefficient (m1 = 0.1216): 1.144 ± 0.0083
osmotic coefficient (m1 = 0.3009): 0.456 ± 0.022
osmotic coefficient (m1 = 0.5079): 0.268 ± 0.029
osmotic coefficient (m1 = 0.6604): 0.274 ± 0.028
osmotic coefficient (m1 = 0.7994): 0.314 ± 0.027
osmotic coefficient (m1 = 1.01): 0.354 ± 0.025
osmotic coefficient (m1 = 1.08): 0.362 ± 0.026
osmotic coefficient (m1 = 1.631): 0.373 ± 0.024
osmotic coefficient (m1 = 2.392): 0.401 ± 0.023
osmotic coefficient (m1 = 3.127): 0.436 ± 0.022
osmotic coefficient (m1 = 4.097): 0.455 ± 0.021
osmotic coefficient (m1 = 5.12): 0.469 ± 0.021
osmotic coefficient (m1 = 6.369): 0.498 ± 0.019
osmotic coefficient (m1 = 9.545): 0.525 ± 0.022

CCC(=O)O [propanoic acid] + O
osmotic coefficient (m1 = 0.3425): 1.054 ± 0.0037
osmotic coefficient (m1 = 0.4819): 1.036 ± 0.0046
osmotic coefficient (m1 = 0.6261): 1.018 ± 0.0035
osmotic coefficient (m1 = 0.8086): 0.9963 ± 0.0012
osmotic coefficient (m1 = 1.054): 0.9683 ± 0.0028
osmotic coefficient (m1 = 1.294): 0.942 ± 0.013
osmotic coefficient (m1 = 1.796): 0.892 ± 0.013
osmotic coefficient (m1 = 2.261): 0.851 ± 0.015
osmotic coefficient (m1 = 2.918): 0.7984 ± 0.0078
osmotic coefficient (m1 = 4.125): 0.718 ± 0.011
osmotic coefficient (m1 = 5.45): 0.647 ± 0.014
osmotic coefficient (m1 = 7.948): 0.549 ± 0.018
osmotic coefficient (m1 = 8.132): 0.542 ± 0.018
osmotic coefficient (m1 = 10.51): 0.478 ± 0.02
osmotic coefficient (m1 = 12.4): 0.438 ± 0.023
